Source: US8471063B2, “Michael systems as transglutaminase inhibitors” (Zedira GmbH, priority 2006, dated 2013)
pIC50: −log10 of the molar value. Where a SMILES comes first, the peptide text is derived from it. [ ]: non-standard residue; d: D form. The star is where a group is joined. Nle(5E-ene,6-CO2Et) = CCOC(=O)/C=C/CC[C@H](N)C(=O)O; Cbz = O=C(OCc1ccccc1)*

Assays:
[1] = system: biopsies from the lower duodenum of patients suffering from coeliac disease; experiment: Biopsy example 2: interferon-γ ELISA of PT gliadin stimulated duodenal biopsies; assay type: cell-based, human; settings: 5 μM inhibitor preincubation, PT gliadin stimulation
Experimental: (§1) Biopsies with a diameter of about 2 mm were stored for a maximum of 30 min in ice-cold PBS after removal from the lower duodenum of patients suffering from coeliac disease. The single biopsies were transferred into the cavities of a 24-well cell culture dish and coated with 500 μl of Trowell T8 medium.
For preincubation, the transglutaminase inhibitor (1) in a final concentration of 5 μM was added to the biopsies and they were incubated for 30 min at a temperature of 37° C. in the incubator under gassing with CO2 (5%). Subsequently, stimulation with gliadin after peptic-tryptic digest (PT gliadin) used in a final concentration of 1 mg/ml was performed. PT gliadin was produced as described by Wieser and Belitz (Wieser H and Belitz HD (1992), Z Lebenm Unters Forsch 194: 229-234). The treatment with the proteases pepsin and trypsin simulates the digestion in the gastrointestinal tract. […]
Biopsies were cultivated and treated as described in biopsy example 1. After 24 and 48 hrs, 50 μl samples were taken both from the biopsy stimulated with PT gliadin and from the biopsy preincubated with inhibitor (1), which subsequently was also stimulated with PT gliadin and the samples were analyzed by means of an interferon-γ Elisa. A very high interferon-γ value of 653 pg/ml could already be measured in the biopsy stimulated with PT gliadin after 24 hrs, which value increased to 1177 pg/ml after 48 hrs.

FXIII = molecular target: T1, FXIII (Homo sapiens, UniProt P00488); experiment: Transglutaminase inhibition, IC50 at FXIII; assay type: biochemical; settings: Table 1
T1 sequence (P00488 1-732): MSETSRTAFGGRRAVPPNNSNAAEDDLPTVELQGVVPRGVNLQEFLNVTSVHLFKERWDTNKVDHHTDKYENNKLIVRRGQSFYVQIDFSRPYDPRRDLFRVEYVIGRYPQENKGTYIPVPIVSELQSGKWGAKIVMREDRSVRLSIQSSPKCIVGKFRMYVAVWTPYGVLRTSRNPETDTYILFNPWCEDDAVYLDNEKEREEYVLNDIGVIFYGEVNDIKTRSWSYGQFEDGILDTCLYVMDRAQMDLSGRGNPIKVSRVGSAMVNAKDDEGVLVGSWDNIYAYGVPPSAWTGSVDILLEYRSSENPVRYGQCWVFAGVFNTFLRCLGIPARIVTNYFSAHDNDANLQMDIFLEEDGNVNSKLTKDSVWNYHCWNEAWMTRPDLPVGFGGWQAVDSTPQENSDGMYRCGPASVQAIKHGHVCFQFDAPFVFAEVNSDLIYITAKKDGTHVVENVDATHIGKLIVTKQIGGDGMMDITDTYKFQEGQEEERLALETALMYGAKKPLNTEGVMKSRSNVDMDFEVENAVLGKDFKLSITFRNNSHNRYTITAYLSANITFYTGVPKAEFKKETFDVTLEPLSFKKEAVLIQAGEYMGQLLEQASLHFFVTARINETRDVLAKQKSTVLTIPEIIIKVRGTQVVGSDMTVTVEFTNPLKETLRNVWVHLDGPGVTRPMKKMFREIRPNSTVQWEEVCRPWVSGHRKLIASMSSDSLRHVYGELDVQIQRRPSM

[2] = molecular target: T2, recombinant human tissue transglutaminase (His6-rh-TG2) (Homo sapiens, UniProt P21980); experiment: Inactivation of human tissue transglutaminase, fluorescence assay, IC50; assay type: biochemical; settings: Table 1; 5 min preincubation, 37° C.
T2 sequence (P21980 1-687): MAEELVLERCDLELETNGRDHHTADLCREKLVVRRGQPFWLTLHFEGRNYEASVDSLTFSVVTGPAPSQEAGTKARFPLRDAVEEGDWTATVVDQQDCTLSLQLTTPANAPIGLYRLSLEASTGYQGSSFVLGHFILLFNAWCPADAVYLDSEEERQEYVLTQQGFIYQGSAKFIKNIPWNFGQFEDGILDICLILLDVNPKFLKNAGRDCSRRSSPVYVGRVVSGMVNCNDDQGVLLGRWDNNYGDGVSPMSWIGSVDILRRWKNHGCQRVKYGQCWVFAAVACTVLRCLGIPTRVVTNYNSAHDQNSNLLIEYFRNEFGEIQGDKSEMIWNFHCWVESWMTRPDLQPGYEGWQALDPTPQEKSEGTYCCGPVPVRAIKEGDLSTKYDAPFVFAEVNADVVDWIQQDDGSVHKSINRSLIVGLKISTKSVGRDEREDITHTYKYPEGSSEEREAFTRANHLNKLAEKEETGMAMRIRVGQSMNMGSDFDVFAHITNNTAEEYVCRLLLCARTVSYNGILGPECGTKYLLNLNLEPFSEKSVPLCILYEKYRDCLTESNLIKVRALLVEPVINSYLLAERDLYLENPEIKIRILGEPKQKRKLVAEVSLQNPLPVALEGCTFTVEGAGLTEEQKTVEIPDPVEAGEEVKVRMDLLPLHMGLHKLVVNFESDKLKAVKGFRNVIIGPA
In short: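 10 μg His6-rh-TG2 added to a pH 7.5 Tris/CaCl2/DTT/PEG8000 assay solution holding inhibitor, 5.56 mM glycine methyl ester and 50 μM Abz-APE(CAD-DNP)QEA-OH (pre-addition levels); 5 min at 37 °C before reading. Fluorescence λexc 313/λem 418 nm over 15 min; activity from slope, IC50 relative to DMSO control.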

[3] = system: biopsies from the lower duodenum of patients suffering from coeliac disease; experiment: Biopsy example 1: anti-TG2 ELISA of PT gliadin stimulated duodenal biopsies; assay type: cell-based, human; settings: 5 μM inhibitor, 30 min preincubation, then PT gliadin 1 mg/ml, 48 hrs; medium control 1.285, PT gliadin alone 2.144
Experimental: as §1
For preincubation, the transglutaminase inhibitor (1) in a final concentration of 5 μM was added to the biopsies and they were incubated for 30 min at a temperature of 37° C. in the incubator under gassing with CO2 (5%). Subsequently, stimulation with gliadin after peptic-tryptic digest (PT gliadin) used in a final concentration of 1 mg/ml was performed. PT gliadin was produced as described by Wieser and Belitz (Wieser H and Belitz HD (1992), Z Lebenm Unters Forsch 194: 229-234). The treatment with the proteases pepsin and trypsin simulates the digestion in the gastrointestinal tract. Thus the resulting gliadin peptides correspond to those which occur in the duodenum after the intake of cereal protein. The biopsies were then incubated for another 48 hrs in the incubator under the above conditions.
Controls were incubated with inhibitor-free medium and without or respectively with PT gliadin.
After 48 hrs, 50 μl samples were taken and analyzed by means of an anti-TG2 ELISA kit.

dog (Irish setter) = experiment: In-vivo experiment in the Irish setter fed a wheat-containing diet
Experimental: A 5 weeks old dog (Irish setter) was fed with a wheat-containing diet. […] By a jejunal biopsy a partial degradation of the intestinal villi and an increased number of intraepithelial lymphocytes were found.
This dog was fed before each meal with 75 mg/kg body weight transglutaminase inhibitor (1) in a acid-stable formulation. In the following a decrease of the diarrhea and an increase in body weight were observed.

[4] = 75 mg/kg before each meal, after two months
[5] = 75 mg/kg body weight before each meal, acid-stable formulation

CCOC(=O)/C=C/CC[C@H](NC(=O)OCc1ccccc1)C(=O)N[C@H](C(=O)N1CCC[C@H]1C(=O)N[C@@H](CC(C)C)C(=O)OC)C(C)C [Compound 1, N^α-benzyloxycarbonyl-{[(E)-(L)-6-amino-hept-2-ene-dicarboxylic acid]-1-ethanoyl}-L-valinyl-L-prolinyl-L-leucine methyl ester] (Cbz-[Nle(5E-ene,6-CO2Et)]VPL-OMe)
interferon-γ value ([1]; after 24 hrs, PT gliadin alone 653 pg/ml): 86 pg/mL | interferon-γ value ([1]; after 48 hrs, PT gliadin alone 1177 pg/ml): 426 pg/mL | pIC50 (FXIII): < 4.30 | pIC50 [2]: 7.52 | OD450 in the anti-TG2 ELISA (antibody concentration) [3]: 1.401 | length of the intestinal villi (biopsy) (dog (Irish setter); [4]): normal length | number of intraepithelial lymphocytes (biopsy) (dog (Irish setter); [4]): significantly reduced | body weight (dog (Irish setter); [5]): increase | diarrhea (dog (Irish setter); [5]): decrease
